Source: patent US11439685B2, “Formulations for treating a fibrotic disease” (TRUSTEES OF BOSTON UNIVERSITY, priority 2020, dated 2022)
“Also recorded” adds a separate entry of the source. Like-named read-outs stand apart in the source and are kept apart here.

Columns and labels:
[1] = regressed when marimastat was stopped; cited from earlier work
[2] = Circular dichroism spectroscopy of relaxin-2 fold and stability; assay type: physicochemical; details: for time relaxin-2 is stable: 37° C., no loss of alpha helical structure
Description: Relaxin-2 loaded PLGA microparticles (RMPs) were prepared based on the water/oil/water (w/o/w) method as described by Igartua, M., et. al., International Journal of Pharmaceutics, 1998, 169(1): 45-54 at 1.27×10-3 wt % loaded relaxin as determined by ELISA analysis. Significant optimization and tailoring of the method was required to obtain the particle. Amounts, time, temperature, mixing speed, polymer LA:GA content were all varied to identify a unique non-obvious set of conditions to prepare the polymer. […] Relaxin-2 in the relaxin-2 microparticles maintained its native secondary and tertiary structure through the w/o/w double-emulsion process. […] Additionally, relaxin-2 was stable at 37° C. over 2 months (FIG. 2, right). The relaxin-2 PLGA microparticles were prepared with batch-to-batch consistency and were resuspended in PEG-600 to reduce aggregation and flocculation, as well as to ease administration through a 23 G needle.
Two amphiphilic hydrogels were synthesized for the physical entrapment of relaxin-2 in order to control its sustained release (FIG. 6). These amphiphilic molecules melted at 95° C. and congealed when slowly cooled back to room temperature strictly from non-covalent interactions. The alkyl chain of 1 and alkyl fluoride chain of 2 allow for hydrophobic interactions between each molecule, while the trizol and thymidine moieties allow for pi-pi stacking. Lastly, the deoxyribose and glucose groups facilitate hydrogen bonding (Godeau, G., et al., Tetrahedron Letters 2010, 51: 1012-1015; Ramen, F. A. et al., Biomaterials. 2017, 145: 72-80). Together, these amphiphilic molecules create unique and stable supramolecular assemblies that are stable at 37° C. for at least two weeks. This stability feature is another novel finding and benefit to the use of the hydrogels. Three gels of each 1 and 2 were created with bovine serum albumin and relaxin-2 at different densities by dissolving each molecule in a solution of phosphate buffered saline with protein and heating to 95° C. for 30 minutes. […]

[3] = system: collagen I expression in human fibroblast-like synoviocytes (HFLS); experiment: Collagen I expression in synoviocytes treated with relaxin-2 microparticles in transwells; assay type: cell-based
Text: Human fibroblast-like synoviocytes (HFLS) treated with relaxin-2 microparticles in transwells allow for evaluation of the release and efficacy of released relaxin-2 at various time points. […] In the presence of relaxin-2, collagen I is expressed at 20 to 30% of the basal level at weeks 1, 3, and 4.

[4] = system: glenohumeral joint in an animal model of shoulder contracture; experiment: Range of motion in rat shoulder contracture model; assay type: in vivo, rats
Description: The study was approved by the Institutional Animal Care and Use Committee, and 10 Sprague-Dawley rats (250-300 g, Charles River Laboratories, Wilmington, Mass., USA) were used in the study. For each animal, torque was measured per degree, on the intact left shoulder as a function of rotation angle between 80° of internal rotation (negative values by convention) and 60° of external rotation (positive values by convention) prior to any surgical intervention (baseline). […] Therefore, torque values at 60° external rotation (τOUT) and 800 of internal rotation (τINT) were recorded for each animal. The left forelimb of each animal was immobilized using extraarticular internal fixation. Under isoflurane anesthesia, a longitudinal skin incision was made perpendicular to the scapular spine. Two No. 2-0 braided polyester sutures (Ethibond Excel, Ethicon—San Lorenzo, PR, USA) were passed between the medial border of the scapula and the humeral shaft and tightened to immobilize the shoulder joint (FIG. 1, panel A). Muscular structures were not manipulated during surgery, and the animals were allowed normal activity in their cages immediately after the procedure. After 8 weeks of immobilization, the restraining sutures were removed, and the 10 animals were divided into two groups to evaluate changes in ROM (ROM group, n=5) and joint stiffness (stiffness group, n=5). In the ROM group, changes in kinematics were longitudinally quantified in the follow-up period by measuring the ROM achieved with the TOUT and TINT measured at baseline. This was conducted to evaluate whether immobilization mediated a significant reduction in ROM. In the stiffness group, joint kinetics were examined by measuring the differences in TOUT and TINT needed to achieve the original 800 of internal rotation and 60° of external rotation, respectively. […] The baseline measurements for each group were used as internal controls to reduce the total number of animals necessary for the study. […] ROM and torque measurements were performed under general anesthesia using a device that consisted of a sensor assembly, a rotating axle, and an arm clamp. The sensor assembly contained an orientation sensor (3DM-GX3-15, MicroStrain—Williston, Vt.), as well as a reaction torque sensor (TFF400, Futek—Irvine, Calif.) secured to the axle such that the sensing axis was collinear with the center of rotation. […] In the ROM group, pre-set programmable torque values, specific for each animal and measured at baseline (TOUT and TINT), were used as input variables in order to detect changes in rotation ROM with 0.2° resolution. […] For each animal, torque was measured per degree, on the intact left shoulder as a function of rotation angle between 1000 of internal rotation and 600 of external rotation prior to any surgical intervention. […]

[5] = system: shoulder joint in an animal model of shoulder contracture; experiment: Histological analysis of the shoulder joint in rat contracture model; assay type: in vivo, rats; details: immobilized shoulders, FIG. 12
heart failure = details: 30 micrograms/kg/day for 2 days, intravenous infusion; cited from earlier work
human fibroblasts = details: cited from earlier work
[6] = system: collagen build-up in the lung induced by bleomycin; details: cited from earlier work
[7] = system: cultured renal fibroblasts, epithelial cells and mesangial cells; details: TGF-β-induced; cited from earlier work
[8] = cited from earlier work
scleroderma = details: cited from earlier work

Molecule	adverse effect in patients [1]	time relaxin-2 is stable [2]	time relaxin-2 is stable ([2]; listed as relaxin-2) [months]	secondary/tertiary structure of relaxin-2 after w/o/w double emulsion process ([2]; circular dichroism, freshly prepared vs emulsified)	collagen I reduced to (densitometry) ([3]; after release of relaxin-2 from microparticles, FIG. 4 legend)	collagen I expression compared to untreated control ([3]; relaxin-2 released over four weeks, synoviocytes)	internal ROM ([4]; intravenous injection at a much greater dose)	internal ROM ([4]; mIA relaxin-2 5 x 2 ug/kg every other day, or single intraarticular RMP approx. 10 ug/kg, follow-up 8 weeks)	internal ROM ([4]; mIA relaxin-2 5 x 2 ug/kg every other day, or single intraarticular RMP approx. 10 ug/kg, follow-up 8 weeks, listed as relaxin-2)	internal ROM ([4]; singular articular injection)	histology: adhesions / hallmarks of arthrofibrosis [5]	trial's primary endpoint of effectiveness (heart failure)	levels of collagen types I and III and fibronectin (human fibroblasts)	collagen build-up in the lung and overall fibrosis [6]	fibronectin levels and degradation [7]	efficacy in animals ([8]; bolus dose)	efficacy in animals ([8]; sustained dose)	trial's primary endpoint of effectiveness (scleroderma; 25 micrograms/kg/day for 24 weeks, subcutaneous delivery)	adverse events (scleroderma; in vivo, sc)
CNC(=O)[C@@H](NC(=O)[C@H](CC(C)C)[C@H](O)C(=O)NO)C(C)(C)C [marimastat]	developed shoulder contractures																		
Relaxin-2		up to 2 months	2	no change; also recorded: unaffected by the double emulsion process	approximately 50%	significant downregulation in collagen I expression	similarly constricted internal ROM compared with the untreated control group	significant increase back to healthy baseline by week 2	restoration of internal ROM to baseline measurements	similarly constricted internal ROM compared with the untreated control group	lacked any apparent adhesions	did not meet the trial's primary endpoint of effectiveness	reduction	decreased collagen build-up	decreased TGF-β-induced fibronectin levels and increased fibronectin degradation	not be effective	effective	did not meet the trial's primary endpoint of effectiveness	declines in creatine clearance and renal adverse events
